# In patent US6878388B1, “Vanadium compounds for treating proliferative cell disorders” (Parker Hughes Institute, priority 2000, dated 2005):
# Legend:
# [1] = tested on: intracranial U87 glioblastoma; experiment: Nude mouse model of intracranial glioblastoma; type: in vivo, NCr nude mice
# Excerpt: FIG. 2 illustrates the in vivo antitumor activity of [VO(SO4)(Me2-Phen)2] against intracranial U87 glioblastoma in nude mice. A representative survival curve of [VO(SO4)(Me2-Phen)2]-treated (n=8) and control (n=9) mice is shown.
# The animal protocols used in this study were approved by the Parker Hughes Institute Institutional Animal Care and Use Committee (IACUC). Female CB.17 severe combined immuno-deficient (SCID) and NCr nude mice were obtained from Taconic (Germantown, N.Y.) and housed in a specific pathogen-free room located in a secure indoor facility with controlled temperature, humidity, and noise levels. Mice were housed in microisolater cages and fed with autoclaved rodent chow. Water was also autoclaved and supplemented with trimethoprim/sulfomethoxazol 3 days/week.
# Nude mice were anesthetized with Avertin (2,2,2-tribromoethanol in tert-amyl alcohol; Aldrich Chemical Co., Milwaukee, Wis.) at a dose of 0.5 mg/g under aseptic conditions in a laminar flow hood. A small hole was drilled through the skull 2 mm to the right of the midline and 2 mm posterior to the bregma. U87 glioblastoma cells (4×10^5 cells in 10 μl of PBS) were intracranially implanted into the right side of the cerebral hemisphere of the mice using a Hamilton syringe fitted to a stereotaxic apparatus with a mouse adaptor (David Kopf Instruments, Tujunga, Calif.) as described earlier (34). Twenty-four hours after inoculation, mice were treated intraperitoneally with [VO(SO4)(Me2-Phen)2] (10 mg/kg/day, n=10) or vehicle (5% DMSO in PBS, n=11) for ten consecutive days. […] The grains were then fixed in formalin, processed for histopathology and the tumor volumes from histological sections were measured as described earlier (Haung et al., J. Biol Chem, 272; 2927-2935, 1997). the remaining mice were monitored twice a day for survival.
# Following intracranial implantation of 4×10^5 U87 glioblastoma cells (in 10 μl of PBS) into the right cerebral hemispheres of NCr […] mice [VO(SO4)(Me2-Phen)2] […] The mice wee monitored twice a day for health status. […]
# [2] = tested on: BT-20 breast cancer cells; experiment: MTT cytotoxicity assay, BT-20; type: cell-based, human; conditions: BT-20 cells, 48 h incubation, 3 independent experiments, read-out: IC50 (mean ± SE)
# Protocol: (§1) Human brain tumor cells lines U87 MG (Cat.# HTB-14), U118 MG (Cat. # HTB-15), U138 (Cat # HTB-16), U373 MG (CAT. # HTB-17), and T98G (Cat. # CRL-1690) and breast cancer cell lines BT-20 (Cat # HTB-19), MDA-MB-231 (Cat # HTB-26), MDA-MB-361 (Cat # HTB-27), and MCF-7 (Cat # HTB-22) were obtained from American Type Culture Collection (ATCC, Rockville, Md.) and maintained as continuous cell lines in Dulbecco's modified Eagles's medium (U87, U118, U138, U373, T98 and BT-20) or Leibovitz's L-15 medium (MDA-MB-231 and MDA-MB-361). All media were supplemented with 10% fetal calf serum (FCS), 4 mM glutamine, 100 U/ml penicillin G and […] streptomycin sulfate. All tissue culture reagents were obtained from Life Technologies Inc. (GIBCO-BRL, Gaithersburg, Md.).
# (§2) The cytotoxicity of [VO(SO4)(Me2-Phen)2] against human cancer cell lines was analyzed using the MTT (3-[4,5-dimethylthiazol-2-yl]-2,5-diphenyl tetrazolium bromide) assay (Boehringer Mannheim Corp., Indianapolis, Ind.) as described previously (Narla et al., Clin Cancer Res., 4: 1405-1414, 1998). […] The absorbance at 540 nm (a reference wavelength of 690 nm was used) of the solution in each well was measured using a microplate reader (Labsystems). The percent survival and the IC50 values were calculated using Graphpad Prism v2.0 (Graphpad Software, Inc., San Diego, Calif.) as described previously (Narla et al., Supra). […]
# [3] = tested on: MDA-MB-231 breast cancer cells; experiment: In situ detection of apoptosis (TdT-mediated dUTP nick-end labeling), MDA-MB-231; type: cell-based, human; conditions: MDA-MB-231 cells, dUTP-FITC labeling; read-out: apoptotic EC50
# Protocol: (§3) Apoptosis was detected using an in situ cell death detection kit (Boehringer Mannheim Corp., Indianapolis, Ind.) as described previously (Albini et al., J. Cell Biol., 105: 1867-1872, 1987; Huang et al., J Biol Chem., 272: 2927-2935, 1997). Cells were incubated with [VO(SO4)(Me2-Phen)2] for 48 hours at 37° C., fixed, permeabilized, incubated with the reaction mixture containing terminal deoxynucleotidyl transferase (TdT) and fluorescein isothiocyanate (FITC)-conjugated dUTP and counterstained with propidium iodide. Cells were transferred to slides and viewed with confocal laser scanning microscope (Bio-Rad MRC 1024) mounted on a Nikon Eclipse E800 series upright microscope as previously reported (Narla et al., Supra).
# (§4) Administration of [VO(SO4)(Me2-Phen)2] to cells induced apoptotic or programmed cell death as determined using the TdT-mediated dUTP nick-end labeling of exposed 3′-OH termini of DNA with dUTP-FITC.
# [4] = tested on: U118 human glioblastoma cells; experiment: MTT cytotoxicity assay, U118; type: cell-based; conditions: 48 h incubation, 3 independent experiments, read-out: IC50 (mean ± SE)
# Protocol: as §1, §2
# [5] = tested on: MCF-7 breast cancer cells; experiment: MTT cytotoxicity assay, MCF-7; type: cell-based, human; conditions: MCF-7 cells, 48 h incubation, 3 independent experiments, read-out: IC50 (mean ± SE)
# Protocol: as §1, §2
# U87 glioblastoma cells = experiment: In situ detection of apoptosis (TdT-mediated dUTP nick-end labeling), U87; type: cell-based, human; conditions: dUTP-FITC labeling, read-out: apoptotic EC50
# Protocol: as §3, §4
smiles,measurement,setting,value
"Cc1ccnc2c1ccc1c(C)ccnc12.Cc1ccnc2c1ccc1c(C)ccnc12.O=S(=O)([O-])[O-].[O]=[V+2] [[VO(SO4)(Me2-Phen)2], bis(4,7-dimethyl-1,10-phenanthroline) sulfatooxovanadium (IV)]",mice remaining alive for >24 days,[1]; 10 mg/kg/day i.p. for ten consecutive days,over 60%
same,median survival time,"[1]; 10 mg/kg/day i.p. for ten consecutive days, control 19.6±0.6 days, P=0.0002",24.4 ± 0.8 days
same,"average tumor volume, fold less than vehicle-treated control","[1]; 17 days after tumor cell inoculation, histological sections, two mice per group",approximately 2.9 fold
same,IC50,[2],1600 ± 700 nM
same,EC50,[3],2100 ± 400 nM
same,IC50,[4],820 ± 100 nM
same,IC50,[5],2300 ± 400 nM
same,EC50,U87 glioblastoma cells,4200 ± 900 nM
